Experimental findings from PMC4457528, “Identification of Novel Small Molecule Inhibitors of Oncogenic RET Kinase” (PLoS ONE, 2015) are described below.

Common to all, as to assay: KinomeScan kinase panel, single concentration 10 µM
Holding throughout (format): binding

In assay [1] the target is T1, KinomeScan kinase panel (Homo sapiens, UniProt O96013).
T1 construct: purchased DiscoveRx (KinomeScan)
To be noted: PAK4, 10 µM; read-out: score (%).

Assay [2] concerns the target T2, KinomeScan kinase panel (Homo sapiens, UniProt Q06418).
T2 construct: purchased DiscoveRx (KinomeScan)
T2 sequence (Q06418 41-890): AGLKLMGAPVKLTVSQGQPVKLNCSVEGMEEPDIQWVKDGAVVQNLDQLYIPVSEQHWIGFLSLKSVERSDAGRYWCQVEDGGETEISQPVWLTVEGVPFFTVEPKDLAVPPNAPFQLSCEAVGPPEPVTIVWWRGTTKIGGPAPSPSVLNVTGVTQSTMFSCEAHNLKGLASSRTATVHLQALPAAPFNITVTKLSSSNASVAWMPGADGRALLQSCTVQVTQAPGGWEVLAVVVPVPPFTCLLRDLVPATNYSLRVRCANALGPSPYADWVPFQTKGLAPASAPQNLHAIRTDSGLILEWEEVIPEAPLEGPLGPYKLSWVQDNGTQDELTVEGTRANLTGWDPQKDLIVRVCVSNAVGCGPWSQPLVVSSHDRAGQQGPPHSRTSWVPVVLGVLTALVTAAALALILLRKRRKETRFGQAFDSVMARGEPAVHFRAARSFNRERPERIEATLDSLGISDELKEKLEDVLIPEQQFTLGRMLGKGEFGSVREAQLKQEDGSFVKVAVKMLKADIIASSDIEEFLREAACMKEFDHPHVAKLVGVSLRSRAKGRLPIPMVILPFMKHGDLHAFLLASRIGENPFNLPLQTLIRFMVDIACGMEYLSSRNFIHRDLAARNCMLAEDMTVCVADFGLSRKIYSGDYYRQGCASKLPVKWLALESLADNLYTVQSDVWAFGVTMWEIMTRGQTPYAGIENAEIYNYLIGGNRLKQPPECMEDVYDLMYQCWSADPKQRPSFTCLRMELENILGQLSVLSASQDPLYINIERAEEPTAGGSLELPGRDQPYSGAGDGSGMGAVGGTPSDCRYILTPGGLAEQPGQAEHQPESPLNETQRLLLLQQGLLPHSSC
As to conditions: kinase TYRO3; 10 µM; read-out: score (%).

Assay [3] addresses T3, KinomeScan kinase panel (Homo sapiens, UniProt Q13177).
T3 construct: purchased DiscoveRx (KinomeScan)
To be noted: PAK2, 10 µM; read-out: score (%).

Assay [4] has as its target T4, KinomeScan kinase panel (Homo sapiens, UniProt Q13237).
T4 construct: purchased DiscoveRx (KinomeScan)
T4 sequence (Q13237 1-762): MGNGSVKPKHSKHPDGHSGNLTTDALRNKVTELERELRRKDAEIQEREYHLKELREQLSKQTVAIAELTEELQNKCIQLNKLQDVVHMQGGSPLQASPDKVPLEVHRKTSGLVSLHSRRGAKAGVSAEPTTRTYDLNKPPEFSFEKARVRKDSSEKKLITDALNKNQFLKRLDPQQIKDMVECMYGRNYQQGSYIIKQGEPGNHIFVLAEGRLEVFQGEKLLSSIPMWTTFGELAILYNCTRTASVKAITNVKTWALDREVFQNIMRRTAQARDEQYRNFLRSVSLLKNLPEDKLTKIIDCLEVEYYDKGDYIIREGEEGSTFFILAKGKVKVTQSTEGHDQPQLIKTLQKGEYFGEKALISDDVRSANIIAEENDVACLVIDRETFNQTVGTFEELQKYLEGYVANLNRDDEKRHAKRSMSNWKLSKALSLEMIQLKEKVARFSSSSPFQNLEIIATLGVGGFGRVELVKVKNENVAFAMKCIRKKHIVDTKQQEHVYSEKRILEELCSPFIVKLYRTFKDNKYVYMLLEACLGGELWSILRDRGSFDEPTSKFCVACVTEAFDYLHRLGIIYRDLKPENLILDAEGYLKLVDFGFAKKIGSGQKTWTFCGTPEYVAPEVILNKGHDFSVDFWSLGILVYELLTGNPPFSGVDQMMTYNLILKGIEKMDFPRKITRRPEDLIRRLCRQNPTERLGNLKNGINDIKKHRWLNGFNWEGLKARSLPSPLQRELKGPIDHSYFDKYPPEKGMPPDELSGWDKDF
As to conditions: read-out: score (%).

Assay [5] has as its target T5, KinomeScan kinase panel (Homo sapiens, UniProt Q13557).
T5 construct: purchased DiscoveRx (KinomeScan)
As to conditions: CAMK2D, 10 µM; read-out: score (%).

The target of assay [6] is T6, KinomeScan kinase panel (Homo sapiens, UniProt Q8TDC3).
T6 construct: purchased DiscoveRx (KinomeScan)
T6 sequence (Q8TDC3 1-778): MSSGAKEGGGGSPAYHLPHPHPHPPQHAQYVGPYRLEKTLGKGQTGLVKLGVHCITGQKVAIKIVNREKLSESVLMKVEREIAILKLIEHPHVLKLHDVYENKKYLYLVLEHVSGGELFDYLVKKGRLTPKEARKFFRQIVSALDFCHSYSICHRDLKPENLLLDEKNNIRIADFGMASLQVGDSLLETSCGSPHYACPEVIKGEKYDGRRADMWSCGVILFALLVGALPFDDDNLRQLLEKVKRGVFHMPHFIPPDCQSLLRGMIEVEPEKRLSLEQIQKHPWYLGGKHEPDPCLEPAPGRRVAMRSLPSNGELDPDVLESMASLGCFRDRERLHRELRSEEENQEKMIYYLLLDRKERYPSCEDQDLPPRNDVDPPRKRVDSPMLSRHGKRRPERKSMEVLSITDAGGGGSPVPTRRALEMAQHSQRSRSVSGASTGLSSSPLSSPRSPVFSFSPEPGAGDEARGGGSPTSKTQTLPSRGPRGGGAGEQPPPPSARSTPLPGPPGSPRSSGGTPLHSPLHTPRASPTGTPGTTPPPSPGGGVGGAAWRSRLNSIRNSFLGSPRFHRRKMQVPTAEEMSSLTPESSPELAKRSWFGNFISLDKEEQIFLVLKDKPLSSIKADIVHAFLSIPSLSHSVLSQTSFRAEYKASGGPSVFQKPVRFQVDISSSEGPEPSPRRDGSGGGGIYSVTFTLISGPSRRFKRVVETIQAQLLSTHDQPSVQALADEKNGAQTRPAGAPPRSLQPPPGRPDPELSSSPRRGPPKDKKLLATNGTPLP
As to conditions: BRSK1, 10 µM; read-out: score (%).

The structures appear in SMILES notation. Where two headings read alike, the source gives them in different places. A value given as a limit tells only on which side of the number the result lay.

T1 sequence (O96013 whole entry): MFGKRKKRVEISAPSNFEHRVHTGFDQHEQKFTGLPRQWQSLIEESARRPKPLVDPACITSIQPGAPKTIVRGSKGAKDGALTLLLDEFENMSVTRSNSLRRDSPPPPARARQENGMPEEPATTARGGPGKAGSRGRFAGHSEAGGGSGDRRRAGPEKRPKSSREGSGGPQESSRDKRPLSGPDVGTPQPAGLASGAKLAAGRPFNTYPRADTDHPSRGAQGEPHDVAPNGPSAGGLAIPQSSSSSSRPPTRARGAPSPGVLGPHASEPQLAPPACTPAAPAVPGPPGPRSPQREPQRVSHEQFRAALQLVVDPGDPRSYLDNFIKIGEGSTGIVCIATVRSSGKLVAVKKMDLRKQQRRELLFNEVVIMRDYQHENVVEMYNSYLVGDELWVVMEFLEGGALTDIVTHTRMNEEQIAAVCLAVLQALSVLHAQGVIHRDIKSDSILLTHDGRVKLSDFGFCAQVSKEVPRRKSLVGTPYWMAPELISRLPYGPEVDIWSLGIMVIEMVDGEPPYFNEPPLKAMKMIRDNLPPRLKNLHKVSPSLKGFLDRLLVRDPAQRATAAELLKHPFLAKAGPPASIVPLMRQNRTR
T3 sequence (Q13177 whole entry): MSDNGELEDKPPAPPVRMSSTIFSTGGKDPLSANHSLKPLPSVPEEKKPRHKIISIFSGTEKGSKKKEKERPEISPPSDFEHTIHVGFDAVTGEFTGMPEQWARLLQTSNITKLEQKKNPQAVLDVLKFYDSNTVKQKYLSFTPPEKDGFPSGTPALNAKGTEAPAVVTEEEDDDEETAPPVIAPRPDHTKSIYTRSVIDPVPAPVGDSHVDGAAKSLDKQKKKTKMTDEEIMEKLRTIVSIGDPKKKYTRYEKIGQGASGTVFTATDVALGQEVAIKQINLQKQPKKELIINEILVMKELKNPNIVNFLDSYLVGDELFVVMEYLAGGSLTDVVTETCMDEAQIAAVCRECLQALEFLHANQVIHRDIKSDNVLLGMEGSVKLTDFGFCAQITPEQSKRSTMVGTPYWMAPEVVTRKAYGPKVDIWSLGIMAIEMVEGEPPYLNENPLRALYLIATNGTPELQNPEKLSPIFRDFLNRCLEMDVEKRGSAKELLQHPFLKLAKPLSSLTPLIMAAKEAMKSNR
T5 sequence (Q13557 whole entry): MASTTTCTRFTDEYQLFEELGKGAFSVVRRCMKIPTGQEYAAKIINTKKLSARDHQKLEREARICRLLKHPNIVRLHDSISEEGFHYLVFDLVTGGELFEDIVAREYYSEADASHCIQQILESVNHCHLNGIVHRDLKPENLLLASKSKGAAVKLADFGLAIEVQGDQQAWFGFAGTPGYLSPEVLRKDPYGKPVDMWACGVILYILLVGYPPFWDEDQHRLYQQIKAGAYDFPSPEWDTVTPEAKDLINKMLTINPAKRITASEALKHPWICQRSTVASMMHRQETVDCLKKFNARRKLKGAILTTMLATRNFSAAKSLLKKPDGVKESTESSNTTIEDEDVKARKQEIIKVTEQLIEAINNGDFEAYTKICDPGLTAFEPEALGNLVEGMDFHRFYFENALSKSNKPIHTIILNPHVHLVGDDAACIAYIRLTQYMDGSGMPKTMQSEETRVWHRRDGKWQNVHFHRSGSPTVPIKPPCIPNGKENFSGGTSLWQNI

Take `CCN1CCN(Cc2ccc(NC(=O)c3ccc(C)c(NC(=O)c4cncc(-c5cccs5)c4)c3)cc2C(F)(F)F)CC1` [ALW-II-41-27]: the remaining binding at 10 µM in assay [1] is more than 30%; in assay [2] it was more than 30%; in assay [3] it was more than 30%; in assay [4] (PRKG2, 10 µM), more than 30%; in assay [5] it was more than 30%; in assay [6], more than 30%.

In the case of `CCN1CCN(Cc2ccc(NC(=O)c3ccc(C)c(/C=C/c4cnc5[nH]ccc5c4Cl)c3)cc2C(F)(F)F)CC1` [HG-6-63-01, (E)-3-(2-(4-chloro-1H-pyrrolo[2,3-b]pyridin-5-yl)vinyl)-N-(4-((4-ethylpiperazin-1-yl)methyl)-3-(trifluoromethyl)phenyl)-4-methylbenzamide], the remaining binding at 10 µM in assay [1] is more than 30%; in assay [2], more than 30%; in assay [3] it was more than 30%; in assay [4] (PRKG2, 10 µM) it was more than 30%; in assay [5], more than 30%; in assay [6], more than 30%.

With `CCN1CCN(Cc2ccc(NC(=O)c3ccc(C)c(C#Cc4cccnc4)c3)cc2C(F)(F)F)CC1` [XMD15-44], the remaining binding at 10 µM in assay [1] is 100%; in assay [2], 100%; in assay [3] it was 84%; in assay [4] (kinase PRKG2, 10 µM), 97%; in assay [5], more than 30%; in assay [6], more than 30%.
